Source: US10934253B2, “Therapeutic compounds and methods” (UNIVERSITY OF TASMANIA, priority 2017, dated 2021)

Tested on: LHON model induced by intravitreal rotenone in C57BL/6 mouse
Experiment: Leber's hereditary optic neuropathy (LHON) mouse model, optomotor response
Assay type: in vivo
Details: rotenone in left eye, 200 mg/kg orally in food
Description: FIG. 5: Efficacy of representative compounds of Formula (I) in leber's hereditary optic neuropathy (LHON) mouse model. LHON induced by rotenone injection in the left eye (5 μM) in C57BL/6 mouse model (Refer to Heitz, F. D et al. (2012). PLoS One., 7(9), e45182). […] Representative compounds (UTA 37 and UTA 77) and idebenone administered at 200 mg/kg over the observation period.
LHON model was induced by intravitreal injection of rotenone into the left eye in C57BL/6 mouse model as described by Heitz et al. 2012. Representative compounds (UTA 37 and UTA 77) and idebenone administered at 200 mg/kg over the observation period. Vision loss was measured by assessing number of head turns.
C57BL/6 mice (male, 8-11 weeks of age, average body weight≈25 g) were used in accordance with the Australian code for the use of animals for scientific purposes and under the required animal ethics approval from the University of Tasmania (UTAS) Animal Ethics Committee (Approval number A0016080). Animals were given at least seven days to acclimatise to the animal facility to reduce stress induced by transportation before being used for behavioural testing. All mice were supplied orally with test compounds by mixing test compounds into individual daily food portions as described previously (Heitz, F. D. et al. (2012). PLoS One., 7(9), e45182). […]

COc1ccc(CCNC(=O)CCCC2=C(C)C(=O)c3ccccc3C2=O)cc1OC [UTA #77, N-(3,4-dimethoxyphenethyl)-4-(3-methyl-1,4-naphthoquinone-2-yl)butanamide]
Protection of visual acuity (head turns, optomotor response; in words): Statistically significant protection of visual acuity
